Assay results: patent US9775819B2, “Oral solid dosage form containing nanoparticles and process of formulating the same using fish gelatin” (R.P. SCHERER TECHNOLOGIES, LLC, priority 2009, dated 2017)

Experiment: Particle size (d50) by laser light diffraction, Malvern Mastersizer 2000
Format: physicochemical
Conditions: unmilled active ingredient
Text: During step (a) of the method of the invention, the suspension may be recycled if necessary and the process of particle size reduction continued until the desired nanoparticle size of the active ingredient is obtained. The size of the nanoparticles within the nanosuspension is typically measured using well known techniques, such as laser light diffraction methodology using, e.g., a Malvern Mastersizer 2000 particle size analyzer (Malvern Instruments, Westborough Mass.). Particle size measurements are typically described using parameters such as d50, a parameter that represents the size above and below which one finds 50% of the volume of all particles, also known as the volume weighted median. Accordingly, d50 represents a median particle size value. According to the invention, the solution is milled until a d50 ranging preferably from about 1 nm to about 900 nm, more preferably from about 10 nm to about 800 nm, and most preferably from about 50 nm to about 700 nm is achieved.
An oral solid dosage form comprising the active ingredient naproxen and excipients fish gelatin as nanostabilizer (SMW fish gelatin grade from Norland Products Inc.—Example 1A; and DFG grade from Norland Products Inc.—Example 1B) and mannitol as bulking agent was prepared. An aqueous solution of 5% fish gelatin and 3% mannitol was prepared; then naproxen was added to this solution to form a suspension slurry. The suspension slurry was charged into a 600 cc chamber-size Dyno® Mill containing zirconium milling media. Naproxen concentration in the milling slurry was 15% by weight. Milling was performed on recirculating suspension for 1.5 hours using the default milling conditions for this equipment. The resultant bulk nanosuspension was discharged from the mill, and 250 mg unit doses were accurately dispensed into 0.25 mL capacity blister pockets using an IVEK pump controlled using a Digispense unit. Blister pockets were frozen in an Air Products CM2000 freezer using liquid nitrogen as coolant and a 3 minute freezing time, then held in a freezer until transfer to pre-cooled freeze-drier shelves. […]

d50 [μm]	Compound
37	COc1ccc2c(c1)c(CC(=O)O)c(C)n2C(=O)c1ccc(Cl)cc1 [indomethacin]
22	COc1ccc2cc([C@H](C)C(=O)O)ccc2c1 [naproxen]
83	CCOc1ccc(NC(C)=O)cc1 [phenacetin]
